Activity calls are given as the source filed them. The calls are words filed in the database; no cut-off is given here.
Tests used:
[1] = system: MIA PaCa-2; test: Effect on PARP protein expression human MIAPaCa2 cells at 0.1 uM to 1 uM incubated for 8 hrs by Western blot; format: functional, cell-based
[2] = system: Nucleic Acid; test: Stabilization of HSP90b DNA G-quadruplex assessed as change in melting temperature at 1 uM by FRET; format: nucleic-acid assay
[3] = Toxicity in human MIAPaCa2 cells xenografted in Swiss mouse assessed as maximum tolerated dosed intraperitoneally three times per week; format: organism-based, MIA PaCa-2; conditions: in vivo, ip
[4] = system: MIA PaCa-2; test: Effect on gammaH2AX protein expression human MIAPaCa2 cells at 0.1 uM to 1 uM incubated for 8 hrs by Western blot; format: functional, cell-based
[5] = system: Mus musculus; test: Reduction in hTERT protein expression in human MIAPaCa2 cells xenografted Swiss mouse tumor at 3 mg/kg, ip dosed three times per week by immunoblot; format: functional, MIA PaCa-2; set-up: scale not given: the % may be the effect or the level left; conditions: route intraperitoneal
[6] = system: Pancreas; test: Biodistribution in human MIAPaCa2 cells xenografted Swiss mouse Pancreas at 3 mg/kg, ip dosed three times per week measured 48 hrs after last 4 cycles of compound dosing; format: ADME, organism-based, MIA PaCa-2; set-up: dose 3 mg/kg, route intraperitoneal; conditions: in vivo
[7] = system: Nucleic Acid; test: Stabilization of HSP90b DNA G-quadruplex assessed as change in melting temperature at 0.5 uM by FRET; format: nucleic-acid assay
[8] = system: Mus musculus; test: Toxicity in human MIAPaCa2 cells xenografted in Swiss mouse assessed as incidence of weight loss at 3 mg/kg, ip dosed three times per week; format: organism-based, MIA PaCa-2; set-up: dose 3 mg/kg, route intraperitoneal; conditions: in vivo
[9] = system: Mus musculus; test: Biodistribution in human MIAPaCa2 cells xenografted Swiss mouse tumor at 3 mg/kg, ip dosed three times per week measured 48 hrs after last 4 cycles of compound dosing; format: ADME, organism-based, Neoplasm, MIA PaCa-2; set-up: dose 3 mg/kg, route intraperitoneal; conditions: in vivo
[10] = system: Mus musculus; test: Inhibition of telomerase activity in human MIAPaCa2 cells xenografted Swiss mouse at 3 mg/kg, ip dosed for 25 days by TRAP-LIG assay relative to untreated control; format: functional; conditions: MIA PaCa-2, ip, 600 h, route intraperitoneal
[11] = system: Mus musculus; test: Reduction in k-Ras protein expression in human MIAPaCa2 cells xenografted Swiss mouse tumor at 3 mg/kg, ip dosed three times per week by immunoblot; format: functional, organism-based; set-up: dose 3 mg/kg; conditions: MIA PaCa-2
[12] = system: Mus musculus; test: Reduction in HSP90 protein expression in human MIAPaCa2 cells xenografted Swiss mouse tumor at 3 mg/kg, ip dosed three times per week by immunoblot; format: functional, MIA PaCa-2; set-up: scale not given: the % may be the effect or the level left; conditions: route intraperitoneal
[13] = system: Mus musculus; test: Reduction in Bcl-2 protein expression in human MIAPaCa2 cells xenografted Swiss mouse tumor at 3 mg/kg, ip dosed three times per week by immunoblot; format: functional, MIA PaCa-2; set-up: scale not given: the % may be the effect or the level left; conditions: route intraperitoneal
[14] = system: Nucleic Acid; test: Stabilization of HSP90a DNA G-quadruplex assessed as change in melting temperature at 1 uM by FRET; format: nucleic-acid assay
[15] = system: Nucleic Acid; test: Stabilization of HSP90a DNA G-quadruplex assessed as change in melting temperature at 0.5 uM by FRET; format: nucleic-acid assay
[16] = system: MIA PaCa-2; test: Antitumor activity against human MIAPaCa2 cells xenografted in Swiss mouse assessed as reduction tumor volume at 3 mg/kg, ip dosed three times per week; format: functional; set-up: scale not given: the % may be the effect or the level left; conditions: route intraperitoneal

For `CN1CCN(CCCNc2cc3c4c(c(NCCCN5CCN(C)CC5)cc5c4c2C(=O)N(CCCN2CCN(C)CC2)C5=O)C(=O)N(CCCN2CCN(C)CC2)C3=O)CC1`, the Activity [1] was “inactive”, the ΔTm [2] was 32 °C and the MTD [3] was 15 mg/kg. For the same compound, the Activity [4] was “inactive”, the Activity [5] was 30% and the Drug uptake [6] was “Active”. The ΔTm [7] was 31 °C, the Activity [8] was “Non-toxic” and the Drug uptake [9] was “Active”. For the same compound, the inhibition in vivo at 3 mg/kg [10] was 50%, the Activity [11] was “inactive” and the Activity [12] was 30%. It also gave an Activity [13] of 10%, a ΔTm [14] of 36.3 °C and a ΔTm [15] of 34.9 °C. It also gave an Activity [16] of 50%.

From ChEMBL document CHEMBL2157890, “Targeting pancreatic cancer with a G-quadruplex ligand” (Bioorg Med Chem, 2011)
